Assay results published in paper PMC9612231, “Antileishmanial Anthracene Endoperoxides: Efficacy In Vitro, Mechanisms and Structure-Activity Relationships” (Molecules, 2022).

Key:
[1] = tested on: Leishmania tarentolae promastigotes (LtP); assay: LtP viability combination assay with NAC or PIH; format: cell-based; details: 2 × 10^6 LtP/mL; for Change of IC50 value in LtP by addition of PIH: 50 µM PIH; for Change of IC50 value in LtP by addition of NAC: 2 mM NAC
Source text: Based on the findings from chemical test systems, we studied the actual activation of these EP compounds in LtP. For this purpose, we used the established viability assays for Leishmania and studied how IC50 values were changed by the presence of the typical radical scavenger N-acetyl cysteine (NAC) or the iron chelator for low molecular iron pyridoxal isonicotinoyl hydrazine (PIH). We expressed the changes of the IC50 values in the presence of these additional compounds in percent, referring to the original IC50 values in LtP set to 100% (Figure 8). […] Likewise, in the presence of the iron chelator PIH, the IC50 values of most EP in LtP shifted to higher values.
Assay medium of YEM (20.7 g/L yeast extract powder, 1.2 g/L K2HPO4, 0.2 g/L KH2PO4, 2.9 g/L glucose, pH 7.4) and PBS (1:1, v/v), 25,000 U/L penicillin, 25 mg/L streptomycin, and 7.7 µM hemin was prepared. Aliquots of 200 µL of this medium and 2 × 10^6 LtP/mL (where required) were distributed in non-treated cell culture 96-well plates. Compounds (dissolved in DMSO) were added with starting concentrations of 25 µM (Pen) or 200 µM (AcEP/Ac), and then, serial dilutions were carried out resulting in a set of concentrations (25, 5, 1, 0.2, 0.04, and 0.008 µM) or (200, 40, 8, 1.6, 0.32, and 0.064 µM). For each compound concentration, at least triplicates on each plate were performed. After incubation of the plates at 27 °C for 48 h, 50 µL of resazurin solution (final concentration in wells 20 µM) was added to each well and after 4 h of incubation, the fluorescence was measured at 560 nm excitation and 590 nm emission using a plate reader (Perkin Elmer EnSpire, Rodgau, Germany) (adapted from). Combination assays for viability in the presence of PIH and NAC were performed the same way. However, one half of the plate was filled with YEM/PBS with 2 × 10^6 LtP/mL, and the other half of the plate was filled with YEM/PBS with 2 × 10^6 LtP/mL supplemented with non-toxic concentrations of PIH (50 µM) or NAC (2 mM), so that for each plate, two compounds were tested with and without the presence of PIH or NAC. All tests were repeated at least on four different weeks of cultivation.

[2] = Formation of the xylenol orange/Fe3+ complex by EP; details: for Log10 (Formation Rate) / XO/Fe^3+ Formation Rate: AcEP and 250 µM FeSO4 in methanol/H2O (9:1); for XO/Fe^3+ Formation Rate: mean ± SD of 3 experiments
Source text: In subsequent experiments, we explored the activation of EP and possible cellular consequences of these compounds in Leishmania. In a chemical system, we tested how fast EP react with iron (II) and, therefore, lead to the activation of these compounds. Resulting iron (III) was detected as complex with xylenol orange (XO, Figure 3). The reaction rate of the EP stretched across two magnitudes of orders (Table 3). On the first view, there is no direct link between the activation rates and the efficiency of the compounds against Leishmania.
XO (125 µM) and butylated hydroxytoluene (4 mM) were dissolved in MeOH/H2O (9:1). FeSO4 (25 mM) in 2.5 M H2SO4 was prepared immediately before use (final concentration of 250 µM FeSO4 in the color reagent). An aliquot of 100 µL EP solution (final concentration of 100 µM) was transferred into a disposable cuvette (BRAND, Wertheim, Germany), and 1 mL of the color reagent was added. The EP that reacted slower were incubated for 0, 30, 60, and 90 min at 25 °C. The EP that reacted faster were measured every 5 s over 5 min. At these time points, the OD difference of the sample at 560 nm and 650 nm was determined using a MS1501 UV–VIS diode array spectrophotometer (Shimadzu, Kyoto, Japan). As reference, a mixture of MeOH/H2O (9:1) was used. The slope of the reaction rate was calculated using an extinction coefficient of 1.5 × 10^4 M^−1 cm^−1.

[3] = UV detection of cycloreversion (thermal decomposition) of AcEP; format: physicochemical; details: 40 µM AcEP in EtOH at 70 °C over up to 23 h, UV spectra
Method: To determine EP decomposition, we recorded at first the UV spectra of the parent Ac compound and then observed the spectral changes of the corresponding EP during incubation in EtOH (Figure 7). […] Spectral changes in these compounds rather indicate other decomposition pathways.
A sample of the corresponding Ac in 1.5 mL EtOH (final concentrations 2, 8, or 10 µM) was transferred into a quartz cuvette and measured by an UV–VIS spectrometer (U3300, Hitachi, Tokyo, Japan) at 70 °C. Afterwards, an aliquot of the corresponding AcEP dissolved in EtOH (final concentration 40 µM) was pipetted into a cuvette, and its UV spectra were measured at 70 °C in a time interval of 1 h over a period of 23 h. After measurements, the re-appearance of the Ac absorption pattern was verified.

| Structure (SMILES) | Change of IC50 value in LtP by addition of PIH [1] | Change of IC50 value in LtP by addition of NAC [1] | Log10 (Formation Rate) [2] | XO/Fe^3+ Formation Rate [2] | Cycloreversion to the parent Ac compound (thermal decomposition) [3] | Activation by iron (II), in words ([2]; XO assay) |
| --- | --- | --- | --- | --- | --- | --- |
| COc1ccccc1C12OOC(c3ccccc3OC)(c3ccccc31)c1ccccc12 [oOMeAcEP] | increase of IC50 values | did not respond, but rather displayed even lower IC50 values | 2.73 | 545 ± 17 nmol/min | – | – |
| C[n+]1ccc(C23OOC(c4cc[n+](C)cc4)(c4ccccc42)c2ccccc23)cc1 [Compound 1062MeAcEP] | increase of IC50 values | higher IC50 values in the presence of the thiol NAC | 2.78 | 609 ± 27 nmol/min | – | – |
| c1ccc(C23OOC(c4ccccn4)(c4ccccc42)c2ccccc23)nc1 [oPyAcEP] | no increase was observed | higher IC50 values in the presence of the thiol NAC | 4.91 | 81,700 ± 11,921 nmol/min | did not undergo conversion to the parent Ac compound | – |
| CC(C)(C)c1ccc2c(c1)C1(c3cccnc3)OOC2(c2cccnc2)c2ccccc21 (stereo not drawn) [mPyBuAcEP] | increase of IC50 values | higher IC50 values in the presence of the thiol NAC | 2.86 | 731 ± 111 nmol/min | clear reformation of the parent Ac compound over time | rather slow activation by iron (II) |
| c1ccc(C23OOC(c4ccccc4)(c4ccccc42)c2ccccc23)cc1 [DPAcEP] | increase of IC50 values | did not respond, but rather displayed even lower IC50 values | 2.83 | 677 ± 86 nmol/min | clear reformation of the parent Ac compound over time | – |
